In the assay the target is Human TASK-1 channels (Homo sapiens (Human), UniProt O14649). In words: Determination of the activity on the TASK-1 channel in Xenopus oocytes (two-microelectrode voltage clamp). Type of assay: cell-based. Particulars: for IC50: human TASK-1 expressed in Xenopus oocytes, room temperature, read-out: IC50 value for TASK-1 inhibition. The method, then: Determination of the activity on the TASK-1 channel in Xenopus oocytes
Human TASK-1 channels were expressed in Xenopus oocytes. For this purpose, oocytes were isolated from Xenopus laevis and defoliculated. Subsequently, TASK-1-encoding RNA synthesized in vitro was injected into the oocytes. After two days of TASK-1 protein expression, TASK-1 currents were measured by two-microelectrode voltage clamp. Data were acquired and analyzed using a TEC-10cx amplifier (NPI Electronic, Tamm, Germany) connected to an ITC-16 interface (Instrutech Corp., Long island, USA) and Pulse software (HEKA Elektronik, Lambrecht, Germany). Oocytes were clamped to −90 mV and TASK-1 mediated currents were measured during 500 ms voltage pulses to 40 mV. Oocytes were continuously superfused with ND96 buffer containing 98 mM sodium chloride, 2 mM potassium chloride, 1.8 mM calcium chloride, 1 mM magnesium chloride, 5 mM 4-(2-hydroxyethyl)-piperazine-1-ethanesulfonic acid (HEPES: pH adjusted to 7.4 with sodium hydroxide). All experiments were performed at room temperature. Test compounds were consecutively added to the bath solution at rising concentrations. Compound effects were calculated as the percentage inhibition of TASK-1 control current before compound addition. IC50 values were obtained by fitting the data to the general dose-response equation.

Sequence of Human TASK-1 channels (O14649 whole entry): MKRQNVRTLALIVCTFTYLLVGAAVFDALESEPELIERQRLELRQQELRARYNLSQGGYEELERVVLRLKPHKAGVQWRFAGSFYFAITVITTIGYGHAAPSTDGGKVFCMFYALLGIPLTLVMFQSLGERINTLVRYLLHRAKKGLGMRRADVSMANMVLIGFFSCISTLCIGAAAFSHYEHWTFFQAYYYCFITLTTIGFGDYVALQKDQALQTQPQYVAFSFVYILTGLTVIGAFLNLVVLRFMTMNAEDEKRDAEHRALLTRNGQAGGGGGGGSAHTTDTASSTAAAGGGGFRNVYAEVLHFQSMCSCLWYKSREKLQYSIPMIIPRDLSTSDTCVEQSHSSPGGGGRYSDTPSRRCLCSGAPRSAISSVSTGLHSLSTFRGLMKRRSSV

The IC50 is the concentration that inhibits the measured activity by half. `CCC(NC(=O)c1cc(C(=O)N2CCC[C@@H]2C)n2c1COCC2)c1ncc(C(F)(F)F)s1` (single isomer, unassigned; diastereomer 2) [16ce]: the IC50 came out at 280 nM.

`CC[C@@H](NC(=O)c1cc(C(=O)NC(C)c2cnccn2)c2n1CCOC2)c1ccccc1` (single isomer, unassigned; diastereomer 1) [16jw]: the 50% inhibitory concentration (IC50) stood at 2860 nM. The inhibition is the drop in the measured response relative to a control, in per cent. A low value points to little suppression. Regarding `CC[C@@H](NC(=O)c1cc(C(=O)NCc2ccc3cc[nH]c3c2)n2c1COCC2)c1ccccc1` [16je, 3,4-Dihydro-1H-pyrrolo[2,1-c][1,4]oxazine-6,8-dicarboxylic acid 6-[(1H-indol-6-ylmethyl)-amide] 8-[((R)-1-phenyl-propyl)-amide]], the inhibition at 5 µM (compound concentration 5 μM) came out at 91%. Consider `CC[C@@H](NC(=O)c1cc(C(=O)NC(C)c2cnccn2)n2c1COCC2)c1ccccc1` (single isomer, unassigned; diastereomer 1) [16if], for which the concentration for half-maximal inhibition (IC50) is 1100 nM. The same measure, in the same setting: for `CC[C@H](NC(=O)c1cc(C(=O)N[C@H](C)c2ccc(F)cc2)n2c1COCC2)c1cnc(OC)cn1` [16dv, 3,4-Dihydro-1H-pyrrolo[2,1-c][1,4]oxazine-6,8-dicarboxylic acid 6-{[(R)-1-(4-fluoro-phenyl)-ethyl]-amide} 8-{[(S)-1-(5-methoxy-pyrazin-2-yl)-propyl]-amide}] the value was 190 nM.

With `CC[C@@H](NC(=O)c1cc(C(=O)NC(C)c2cnccn2)c2n1CCOC2)c1ccc(F)cc1F` (single isomer, unassigned; diastereomer 1) [16pl], the IC50 amounted to 430 nM.

Turning to `CC(NC(=O)c1cc(C(=O)N[C@@H](c2ccc(F)cc2)C(C)C)n2c1COCC2)c1cnccn1` (single isomer, unassigned; diastereomer 1) [16lq], the concentration for half-maximal inhibition (IC50) worked out at 700 nM. For `CCC(NC(=O)c1cc(C(=O)N2CCC[C@@H]2C)n2c1COCC2)c1ccc(S(F)(F)(F)(F)F)cc1` (some centres unmarked) [16bf], the IC50 was found to be 740 nM. Still for that read-out and setting: next, `CC[C@@H](NC(=O)c1cc(C(=O)NCc2cncc(F)c2)n2c1CCCC2)c1ccccc1` [16nb, 5,6,7,8-Tetrahydro-indolizine-1,3-dicarboxylic acid 3-[(5-fluoro-pyridin-3-ylmethyl)-amide] 1-[((R)-1-phenyl-propyl)-amide]]: 460 nM. Same read-out and setting: next, “5,6,7,8-Tetrahydro-indolizine-1,3-dicarboxylic acid 3-[(3,5-dimethyl- isoxazol-4-yl)-amide] 1-[((R)-1-phenyl-propyl)-amide] [16nd]”: 210 nM; “3,4-Dihydro-1H-pyrrolo[2,1-c][1,4]oxazine-6,8-dicarboxylic acid 8-{[(R)- 1-(6-rnethoxy-pyridin-3-yl)-propy]-amide} 6-[((R)-1-phenyl-propyl)- amide] [16jo]”: 250 nM; `CCC(NC(=O)c1cc(C(=O)N[C@H](CC)c2ccccc2)c2n1CCOC2)c1cnc(OC)nc1` (single isomer, unassigned; diastereomer 2) [16hv]: 760 nM.

With `CC[C@@H](NC(=O)c1cc(C(=O)N2CCC[C@@H]2C)n2c1COCC2)c1ccc2c(c1)OC(F)(F)O2` [16bz, 6-((S)-2-Methyl-pyrrolidine-1-carbonyl)-3,4-dihydro-1H-pyrrolo[2,1-c][1,4]oxazine-8-carboxylic acid [(R)-1-(2,2-difluoro-benzo[1,3]dioxol-5-yl)-propyl]-amide], the IC50 turned out to be 200 nM. The same measure, in the same setting: next, “3,4-Dihydro-1H-pyrrolo[2,1-c][1,4]oxazine-6,8-dicarboxylic acid 8-[((R)- 1-phenyl-propyl)-amide] 6-{[(R)-1-(5-trifiuoromethyl-pyridin-3-yl)- propyl]-amide} [16hn]”: 690 nM.
